Test results published in ChEMBL document CHEMBL4699427, “A3- and A2B-fluorocorroles: synthesis, X-ray characterization and antiviral activity evaluation against human cytomegalovirus infection” (RSC Med Chem, 2020).
Active and inactive are the calls of the source. No cut-off for these calls is given here.

How the values were obtained:
[1] = Cytotoxicity against human MRC5 cells assessed as reduction in cell viability incubated for 6 days by Hoechst 33342 staining based microscopic analysis; details: time 6 day
[2] = Cytotoxicity against human ARPE-19 cells assessed as reduction in cell viability incubated for 6 days by Hoechst 33342 staining based microscopic analysis; details: time 6 day
Human betaherpesvirus 5 [3] = assay: Antiviral activity against Human Cytomegalovirus infected in human MRC5 cells assessed as reduction in infection rate incubated for 6 days by Hoechst 33342 staining based microscopic analysis; assay type: functional, cell-based
Human betaherpesvirus 5 [4] = assay: Antiviral activity against human Cytomegalovirus infected in human ARPE-19 cells assessed as reduction in infection rate incubated for 6 days by Hoechst 33342 staining based microscopic analysis; assay type: functional, cell-based
[5] = Selectivity index, ratio of CC50 for human MRC5 cells to IC50 for human Cytomegalovirus infected in human MRC5 cells incubated for 6 days; assay type: toxicity, cell-based; details: time 6 day, read-out: Ratio CC50/IC50
Human betaherpesvirus 5 [6] = assay: Antiviral activity against human Cytomegalovirus infected in human ARPE-19 cells assessed as reduction in infection rate incubated for 10 days by Hoechst 33342 staining based microscopic analysis; assay type: functional, cell-based
[7] = Drug uptake in rabbit RK13 cells incubated for 24 hrs by Hoechst staining based microscopic analysis; assay type: ADME, cell-based, Oryctolagus cuniculus; details: rk13, 24 h
[8] = Selectivity index, ratio of CC50 for human MRC5 cells to IC50 for human Cytomegalovirus infected in human ARPE-19 cells incubated for 10 days; assay type: toxicity, cell-based; details: time 6 day, read-out: Ratio CC50/IC50
Human betaherpesvirus 5 [9] = assay: Antiviral activity against human Cytomegalovirus infected in human ARPE-19 cells assessed as reduction in infection rate incubated for 12 days by Hoechst 33342 staining based microscopic analysis; assay type: functional, cell-based; details: Human betaherpesvirus 5, ARPE-19, 288 h
[10] = Selectivity index, ratio of CC50 for human MRC5 cells to IC50 for human Cytomegalovirus infected in human ARPE-19 cells incubated for 12 days; assay type: toxicity, cell-based; details: time 6 day, read-out: Ratio CC50/IC50
Human betaherpesvirus 5 [11] = assay: Antiviral activity against human Cytomegalovirus harboring ANCHOR infected in human MRC5 cells assessed as reduction in infection rate at 0.15 to 0.625 uM incubated for 6 days by Hoechst 33342 staining based microscopic analysis relative to control; assay type: functional, cell-based; details: dose microM 0.625-0.15, time 6.0 day
Human betaherpesvirus 5 [12] = assay: Antiviral activity against human Cytomegalovirus harboring ANCHOR infected in ARPE-19 cells assessed as reduction in replication by measuring UL44 expression at 0.6 to 0.15 uM by immunofluorescence B31assay; assay type: functional, cell-based; details: dose microM 0.625-0.15, time 10.0 day
Human betaherpesvirus 5 [13] = assay: Antiviral activity against human Cytomegalovirus infected in human MRC5 cells assessed as reduction in viral replication incubated for 6 days by Hoechst 33342 staining based microscopic analysis; assay type: functional, cell-based; details: Human betaherpesvirus 5, MRC5, 144 h
Human betaherpesvirus 5 [14] = assay: Antiviral activity against human Cytomegalovirus harboring ANCHOR infected in human MRC5 cells assessed as reduction in infection rate at 2.5 to 5 uM incubated for 6 days by Hoechst 33342 staining based microscopic analysis; assay type: functional, cell-based; details: dose microM 2.5-5, time 6.0 day
Human betaherpesvirus 5 [15] = assay: Antiviral activity against human Cytomegalovirus harboring ANCHOR infected in human ARPE-19 cells assessed as reduction in infection rate at 1.25 to 2.5 uM incubated for 10 days by Hoechst 33342 staining based microscopic analysis; assay type: functional, cell-based; details: dose microM 1.25-2.5, time 10.0 day
Human betaherpesvirus 5 [16] = assay: Antiviral activity against human Cytomegalovirus infected in human ARPE-19 cells assessed as reduction in viral replication incubated for 13 days by Hoechst 33342 staining based microscopic analysis; assay type: functional, cell-based; details: Human betaherpesvirus 5, ARPE-19, 312 h
[17] = Selectivity index, ratio of CC50 for human MRC5 cells to IC50 for human Cytomegalovirus infected in human ARPE-19 cells incubated for 13 days; assay type: toxicity, cell-based; details: time 6 day, read-out: Ratio CC50/IC50
[18] = Human betaherpesvirus 5, MRC5, 144 h, read-out: IC50
[19] = Human betaherpesvirus 5, ARPE-19, 240 h, read-out: IC50
[20] = Human betaherpesvirus 5, ARPE-19, 144 h, read-out: IC50

Structure (SMILES)	CC50 at 144 h [1] [µM]	CC50 at 144 h [2] [µM]	IC50 (Human betaherpesvirus 5 [3]; mrc5)	IC50 (Human betaherpesvirus 5 [4]; arpe-19)	IC50 (Human betaherpesvirus 5 [3]; [18]) [µM]	selectivity ratio at 144 h [5]	also measured
O=S(=O)(O)CCNc1c(F)c(F)c(-c2c3nc(c4ccc([nH]4)c(-c4c(F)c(F)c(NCCS(=O)(=O)O)c(F)c4F)c4ccc([nH]4)c(-c4c(F)c(F)c(NCCS(=O)(=O)O)c(F)c4F)c4ccc2[nH]4)C=C3)c(F)c1F	> 50	> 50	Not Active	Not Active			
Fc1cc(F)c(F)c(-c2c3nc(c4ccc([nH]4)c(-c4c(F)c(F)cc(F)c4F)c4ccc([nH]4)c(-c4cccnc4)c4ccc2[nH]4)C=C3)c1F	12.8				1.1	11.6	
Fc1cc(F)c(F)c(-c2c3ccc([nH]3)c(-c3c(F)c(F)cc(F)c3F)c3nc(c4ccc([nH]4)c(-c4c(F)c(F)cc(F)c4F)c4ccc2[nH]4)C=C3)c1	21.5				1.16	18.5	IC50 (Human betaherpesvirus 5 [6]; [19]): 0.5 µM; Drug uptake [7]: Active; selectivity ratio at 144 h [8]: 62
CN(C)c1c(F)c(F)c(-c2c3nc(c4ccc([nH]4)c(-c4c(F)c(F)c(N(C)C)c(F)c4F)c4ccc([nH]4)c(-c4c(F)c(F)cc(F)c4F)c4ccc2[nH]4)C=C3)c(F)c1F	> 50				1.91	> 26.2	IC50 (Human betaherpesvirus 5 [6]; [19]): 1.88 µM; selectivity ratio at 144 h [8]: 26.6
Fc1cc(-c2c3nc(c4ccc([nH]4)c(-c4cc(F)c(F)c(F)c4F)c4ccc([nH]4)c(-c4cc(F)c(F)c(F)c4F)c4ccc2[nH]4)C=C3)c(F)c(F)c1F	> 50				6.42	> 7	IC50 (Human betaherpesvirus 5 [9]): 3.71 µM; selectivity ratio at 144 h [10]: > 13
Fc1cc(F)c(F)c(-c2c3nc(c4ccc([nH]4)c(-c4c(F)c(F)cc(F)c4F)c4ccc([nH]4)c(-c4c(F)c(F)nc(F)c4F)c4ccc2[nH]4)C=C3)c1F	3.4				0.09	37.8	IC50 (Human betaherpesvirus 5 [6]; [19]): 0.05 µM; Activity (Human betaherpesvirus 5 [11]): Active; Activity (Human betaherpesvirus 5 [12]): Active; selectivity ratio at 144 h [8]: 450
Fc1cc(F)c(F)c(-c2c3ccc([nH]3)c(-c3c(F)c(F)c(F)c(F)c3F)c3nc(c4ccc([nH]4)c(-c4c(F)c(F)c(F)c(F)c4F)c4ccc2[nH]4)C=C3)c1F	3.03				0.31	9.77	IC50 (Human betaherpesvirus 5 [6]; [19]): 0.31 µM; selectivity ratio at 144 h [8]: 151
Fc1cc(F)cc(-c2c3nc(c4ccc([nH]4)c(-c4cc(F)cc(F)c4)c4ccc([nH]4)c(-c4cc(F)cc(F)c4)c4ccc2[nH]4)C=C3)c1	> 50	> 50	Not Active	Not Active			
Fc1cc(F)c(-c2c3nc(c4ccc([nH]4)c(-c4c(F)cc(F)cc4F)c4ccc([nH]4)c(-c4c(F)cc(F)cc4F)c4ccc2[nH]4)C=C3)c(F)c1	> 50	> 50		Not Active		> 9	IC50 (Human betaherpesvirus 5 [13]): 5.57 µM
O=[N+]([O-])c1cc(F)cc(-c2c3nc(c4ccc([nH]4)c(-c4cc(F)cc([N+](=O)[O-])c4)c4ccc([nH]4)c(-c4c(F)c(F)cc(F)c4F)c4ccc2[nH]4)C=C3)c1	36.7		Not Active				
O=[N+]([O-])c1ccc(-c2c3ccc([nH]3)c(-c3c(F)c(F)cc(F)c3F)c3nc(c4ccc([nH]4)c(-c4c(F)c(F)cc(F)c4F)c4ccc2[nH]4)C=C3)c(C(F)(F)F)c1	11				2.45	4.49	IC50 (Human betaherpesvirus 5 [6]; [19]): 0.33 µM; selectivity ratio at 144 h [8]: 18.6
Fc1cc(F)c(F)c(-c2c3nc(c4ccc([nH]4)c(-c4cc(F)cc(F)c4F)c4ccc([nH]4)c(-c4cc(F)cc(F)c4F)c4ccc2[nH]4)C=C3)c1	> 50	> 50			6	> 7	IC50 (Human betaherpesvirus 5 [4]; [20]): 3.8 µM; Activity (Human betaherpesvirus 5 [14]): inactive; Activity (Human betaherpesvirus 5 [15]): inactive; Drug uptake [7]: Active
Fc1ccccc1-c1c2nc(c3ccc([nH]3)c(-c3ccccc3F)c3ccc([nH]3)c(-c3ccccc3F)c3ccc1[nH]3)C=C2	> 50	> 50	Not Active	Not Active			
Fc1cc(-c2c3nc(c4ccc([nH]4)c(-c4cc(F)c(F)c(F)c4)c4ccc([nH]4)c(-c4cc(F)c(F)c(F)c4)c4ccc2[nH]4)C=C3)cc(F)c1F	> 50	> 50		Not Active	6.3	> 7	
Fc1ccc(F)c(-c2c3nc(c4ccc([nH]4)c(-c4cc(F)ccc4F)c4ccc([nH]4)c(-c4cc(F)ccc4F)c4ccc2[nH]4)C=C3)c1	> 50	> 50	Not Active	Not Active			
Fc1cc(-c2c3ccc([nH]3)c(-c3c(F)c(F)cc(F)c3F)c3nc(c4ccc([nH]4)c(-c4c(F)c(F)cc(F)c4F)c4ccc2[nH]4)C=C3)ccn1	0.65				0.06	10.8	IC50 (Human betaherpesvirus 5 [6]; [19]): 0.05 µM; selectivity ratio at 144 h [8]: 114
Fc1cc(F)c(F)c(-c2c3nc(c4ccc([nH]4)c(-c4c(F)c(F)cc(F)c4F)c4ccc([nH]4)c(-c4ccccc4)c4ccc2[nH]4)C=C3)c1F	22.3				6.6	3.38	
CN(C)c1c(F)c(F)c(-c2c3ccc([nH]3)c(-c3c(F)c(F)cc(F)c3F)c3nc(c4ccc([nH]4)c(-c4c(F)c(F)cc(F)c4F)c4ccc2[nH]4)C=C3)c(F)c1F	> 50				2.11	> 23.6	IC50 (Human betaherpesvirus 5 [6]; arpe-19): Not Active
Fc1cc(-c2c3nc(c4ccc([nH]4)c(-c4ccnc(F)c4)c4ccc([nH]4)c(-c4ccnc(F)c4)c4ccc2[nH]4)C=C3)ccn1	6.25	6.17			0.46	13	IC50 (Human betaherpesvirus 5 [4]; [20]): 0.15 µM
O=[N+]([O-])c1cc(F)cc(-c2c3ccc([nH]3)c(-c3c(F)c(F)cc(F)c3F)c3nc(c4ccc([nH]4)c(-c4c(F)c(F)cc(F)c4F)c4ccc2[nH]4)C=C3)c1	50		Not Active				
Cc1ccc(F)c(-c2c3nc(c4ccc([nH]4)c(-c4cc(C)ccc4F)c4ccc([nH]4)c(-c4cc(C)ccc4F)c4ccc2[nH]4)C=C3)c1	> 50	> 50	Not Active	Not Active			
O=[N+]([O-])c1ccc(-c2c3ccc([nH]3)c(-c3c(F)c(F)cc(F)c3F)c3nc(c4ccc([nH]4)c(-c4c(F)c(F)cc(F)c4F)c4ccc2[nH]4)C=C3)s1	4.17				0.27	15.6	IC50 (Human betaherpesvirus 5 [16]): 0.13 µM; selectivity ratio at 144 h [17]: 385
COc1ccc(F)c(-c2c3nc(c4ccc([nH]4)c(-c4cc(OC)ccc4F)c4ccc([nH]4)c(-c4cc(OC)ccc4F)c4ccc2[nH]4)C=C3)c1	> 50	> 50	Not Active	Not Active			
